In patent US12497406B2, “Microbiocidal derivatives” (SYNGENTA CROP PROTECTION AG, priority 2019, dated 2025):

Legend:
[1] = system: Glomerella lagenarium (Colletotrichum lagenarium); experiment: Glomerella lagenarium (Colletotrichum lagenarium) / liquid culture (anthracnose); type: cell-based; conditions: Colletotrichum orbiculare, liquid culture (PDB), growth inhibition photometrically 3-4 days after application, compared to untreated control
Description: (§1) Example B3. Glomerella lagenarium (Colletotrichum lagenarium)/Liquid Culture (Anthracnose) Conidia of the fungus from cryogenic storage are directly mixed into nutrient broth (PDB potato dextrose broth). After placing a (DMSO) solution of test compound into a microtiter plate (96-well format), the nutrient broth containing the fungal spores is added. The test plates are incubated at 24° C. and the inhibition of growth is measured photometrically 3-4 days after application. […] […]-25, and P-26.

[2] = system: Puccinia recondita f. sp. tritici; experiment: Puccinia recondita f. sp. tritici / wheat / leaf disc preventative (brown rust); type: in vivo; conditions: foliar, wheat leaf segments cv. Kanzler, inoculated 1 day after application, compared to untreated control
Description: Example B8. Puccinia recondita f. Sp. tritici/Wheat/Leaf Disc Preventative (Brown Rust) Wheat leaf segments cv. Kanzler are placed on agar in multiwell plates (24-well format) and sprayed with the formulated test compound diluted in water. The leaf disks are inoculated with a spore suspension of the fungus 1 day after application. The inoculated leaf segments are incubated at 19° C. and 75% rh under a light regime of 12 h light/12 h darkness in a climate cabinet and the activity of a compound is assessed as percent disease control compared to untreated when an appropriate level of disease damage appears in untreated check leaf segments (7-9 days after application). […] […]-25, and P-26.

[3] = system: Mycosphaerella arachidis (Cercospora arachidicola); experiment: Mycosphaerella arachidis (Cercospora arachidicola) / liquid culture (early leaf spot); type: cell-based; conditions: liquid culture (PDB), growth inhibition photometrically 4-5 days after application, compared to untreated control
Description: Example B7. Mycosphaerella arachidis (Cercospora arachidicola)/Liquid Culture (Early Leaf Spot) Conidia of the fungus from cryogenic storage are directly mixed into nutrient broth (PDB potato dextrose broth). After placing a (DMSO) solution of test compound into a microtiter plate (96-well format), the nutrient broth containing the fungal spores is added. The test plates are incubated at 24° C. and the inhibition of growth is determined photometrically 4-5 days after application. […] […]-22, and P-25.

[4] = system: Monographella nivalis (Microdochium nivale); experiment: Monographella nivalis (Microdochium nivale) / liquid culture (foot rot cereals); type: cell-based; conditions: liquid culture (PDB), growth inhibition photometrically 4-5 days after application, compared to untreated control
Description: as §1, with “B6. Monographella nivalis (Microdochium nivale)/Liquid” for “B3. Glomerella lagenarium (Colletotrichum lagenarium)/Liquid”, “(Foot Rot Cereals)” for “(Anthracnose)”, “determined” for “measured”, “4-5” for “3-4”

[5] = system: Alternaria solani; experiment: Alternaria solani / tomato / leaf disc (early blight); type: in vivo; conditions: foliar, tomato leaf disks cv. Baby, inoculated 2 days after application, compared to untreated control
Description: Example B1. Alternaria solani/Tomato/Leaf Disc (Early Blight) Tomato leaf disks cv. Baby are placed on agar in multiwell plates (24-well format) and sprayed with the formulated test compound diluted in water. The leaf disks are inoculated with a spore suspension of the fungus 2 days after application. The inoculated leaf disks are incubated at 23° C./21° C. […] […]-24, and P-25.

[6] = system: Magnaporthe grisea (Pyricularia oryzae); experiment: whole plant or invertebrate; type: in vivo; conditions: foliar, read-out: control of Magnaporthe grisea
[7] = system: Pyrenophora teres; experiment: Pyrenophora teres / barley / leaf disc preventative (net blotch); type: in vivo; conditions: foliar, barley leaf segments cv. Hasso, inoculated 2 days after application, compared to untreated control
Description: Example B10. Pyrenophora teres/Barley/Leaf Disc Preventative (Net Blotch) Barley leaf segments cv. Hasso are placed on agar in a multiwell plate (24-well format) and sprayed with the formulated test compound diluted in water. The leaf segments are inoculated with a spore suspension of the fungus 2 days after application. The inoculated leaf segments are incubated at 20° C. and 65% rh under a light regime of 12 h light/12 h darkness in a climate cabinet and the activity of a compound is assessed as disease control compared to untreated when an appropriate level of disease damage appears in untreated check leaf segments (5-7 days after application). […] […]-25, and P-26.

[8] = system: Mycosphaerella graminicola (Septoria tritici); experiment: Mycosphaerella graminicola (Septoria tritici) / liquid culture (Septoria blotch); type: cell-based; conditions: Zymoseptoria tritici, liquid culture (PDB), growth inhibition photometrically 4-5 days after application, compared to untreated control
Description: (§2) Example B11. Mycosphaerella graminicola (Septoria tritici)/Liquid Culture (Septoria Blotch) Conidia of the fungus from cryogenic storage are directly mixed into nutrient broth (PDB potato dextrose broth). After placing a (DMSO) solution of test compound into a microtiter plate (96-well format), the nutrient broth containing the fungal spores is added. The test plates are incubated at 24° C. and the inhibition of growth is determined photometrically 4-5 days after application.

[9] = system: Botryotinia fuckeliana (Botrytis cinerea); experiment: Botryotinia fuckeliana (Botrytis cinerea) / liquid culture (gray mould); type: cell-based; conditions: 20 ppm; liquid culture (Vogels broth), growth inhibition photometrically 3-4 days after application; compared to untreated control
Description: as §2, with “B2. Botryotinia fuckeliana (Botrytis cinerea)/Liquid” for “B11. Mycosphaerella graminicola (Septoria tritici)/Liquid”, “(Gray Mould)” for “(Septoria Blotch)”, “(Vogels” for “(PDB potato dextrose”, “3-4” for “4-5”, “application. […] P-22.” for “application.”

Row | Structure (SMILES) | inhibition of growth at 20 ppm [1] [%] | pest or weed control at 200 ppm [2] [%] | inhibition of growth at 20 ppm [3] [%] | inhibition of growth at 20 ppm [4] [%] | pest or weed control at 200 ppm [5] [%] | pest or weed control at 200 ppm [6] [%] | pest or weed control at 200 ppm [7] [%] | inhibition of growth at 20 ppm [8] [%] | control of Botryotinia fuckeliana [9]
1 | CC(C)(C)NC(=O)c1nc(Nc2cc(F)cc(F)c2)cc2c1OCO2 [Compound P-21, N-tert-butyl-6-(3,5-difluoroanilino)-[1,3]dioxolo[4,5-c]pyridine-4-carboxamide] | ≥ 80 | ≥ 80 | ≥ 80 | ≥ 80 | ≥ 80 | ≥ 80 | ≥ 80 | ≥ 80 | –
2 | CC1(NC(=O)c2nc(Nc3cc(F)cc(F)c3)cc3c2OCO3)CCCC1 [Compound P-25, 6-(3,5-difluoroanilino)-N-(1-methylcyclopentyl)-[1,3]dioxolo[4,5-c]pyridine-4-carboxamide] | ≥ 80 | ≥ 80 | ≥ 80 | ≥ 80 | ≥ 80 | ≥ 80 | ≥ 80 | ≥ 80 | –
3 | CC1(C)CCC1NC(=O)c1nc(Nc2cccc(F)c2)cc2c1OCO2 (centres unmarked) [Compound P-8, N-(2,2-dimethylcyclobutyl)-6-(3-fluoroanilino)-[1,3]dioxolo[4,5-c]pyridine-4-carboxamide] | ≥ 80 | ≥ 80 | ≥ 80 | ≥ 80 | ≥ 80 | – | ≥ 80 | ≥ 80 | –
4 | CC1(NC(=O)c2nc(Nc3cc(F)cc(F)c3)cc3c2OCO3)CCC1 [Compound P-22, 6-(3,5-difluoroanilino)-N-(1-methylcyclobutyl)-[1,3]dioxolo[4,5-c]pyridine-4-carboxamide] | ≥ 80 | ≥ 80 | ≥ 80 | ≥ 80 | ≥ 80 | ≥ 80 | ≥ 80 | ≥ 80 | at least 80%
